Like-named read-outs stand apart in the source and are kept apart here.
Legend:
[1] = test system: HIV-1 with WT (wild type) RT in PBMC; experiment: Anti-HIV assay on PBMC, WT RT (p24); format: cell-based
Protocol: Wurzburg Jurkat T cells (subclone JR) were transfected with 10 μg of the circularly permuted infectious molecular clone HIVNL4-3 (Adachi et al., 1986. J. Virol, 59 (2), p 284-291). Two days later, co-cultivation with SupT1 cells (a human T-cell lymphoma cell line) was initiated to facilitate rapid production of progeny virions. Production of virus was measured by using the Innotest HIV Antigen mAb p24 kit (Innogenetics). At the peak of production cultures were harvested and filtered. The virus stocks were stored at −80° C. until used.
Anti-HIV activity of the compounds was tested on Peripheral Blood Mononuclear Cells (PBMCs). These cells were separated from the blood of healthy donor using established procedures. PBMCs were cultured in RPMI medium supplemented with 10% fetal bovine serum (FBS), 1% Penicillin/Streptomycin and 20 U/ml of Interleukin-2.
PBMCs isolated from the blood of healthy donor contain CD4^+ T-lymphocytes which are one of the main targets of HIV in infected individuals.
Briefly, in the anti-HIV assay PBMCs, activated with phytohemagglutinin, were infected with HIV-1. 100 μl of infected PBMCs were seeded in 96-well plate at a concentration of 1 10^5 cells/ml, and 100 μl of the different drugs dilutions were added to the cells. After 4 days of incubation at 37° C., 5% CO2, cells cultures supernatants were collected. The amount of the viral capsid protein p24 in the supernatants was measured using the Innotest HIV Antigen mAb P24 kit (Innogenetics).

[2] = test system: P4 cells; experiment: Cytotoxicity (CC50), MTT assay on P4 cells; format: cell-based; details: 3 days
Protocol: (§1) For the antiviral and the cytotoxicity assays, the drugs were diluted in complete DMEM medium. In these experiments, drugs were diluted in triplicate wells in a 96-well plate in six, 5 fold serial dilutions.
(§2) The 50% cytotoxic concentration (CCso) was determined using a protocol adapted from Pauwels et al. (1988. J. Virol. Methods 20(4):309-21). Briefly, flat bottom 96-well plates were filled with 50 μl of complete medium containing 5.10^3 P4 cells. 2 hours later 50 μl of drug solution were added to the cells. Drugs (dissolved in DMEM, see above) were diluted in six, 5-fold serial dilutions from stock solutions in triplicate wells of a 96-well plate. Cells and compounds were incubated at 37° C. in growth medium for 3 days. Cell viability was determined by MTT assays using the Roche Cell Proliferation KIT. The absorbance (λ=570 nm) was measured on a Benchmark™ Microplate Reader (Biorad) and compared with 12 cell control replicates (no drug added). Each assay was performed at least three times for a total of at least nine replicate wells. This method detects both cytostatic and cytolytic effects of drugs.

[3] = Cytotoxicity (CC50), MTT assay on P4 cells; format: cell-based; details: human
Protocol: as §1, §2

[4] = test system: HIV-1 mutant Asn103RT in P4 cells; experiment: Anti-HIV assay on P4 cells, Asn103RT mutant; format: cell-based
Excerpt: In order to introduce mutation(s) at the level of the pol gene coding for the RT in the pNL4-3 plasmid containing the complete viral genome (Adachi et al., 1986. J. Virol., Vol. 59 p 284-291) we used the “Quick change mutagenesis kit” (Stratagene). The following mutations were separately introduced in pNL4-3: L100I, K103N, V108I, Y181C, Y188C, and the double mutations K103N/V108I. These mutations were chosen because of the resistance that they confer to existing NNRTI. The production procedure of the mutant viral stocks is identical to the one described above.
Anti-HIV activity and cytotoxicity of the compounds were tested on a P4 cell line. The P4 cell line (Clavel & Charneau, 1994. J. Virol., Vol. 68 p 1179-1185) was provided by Dr. François Clavel (Unité de recherche antivirale de l'hôpital Xavier Bichat Paris: Inserm). The P4 cells were cultured in complete DMEM medium supplemented with 10% fetal bovine serum (FBS), 0.5% of Penicillin/Streptomycin and G418 at 0.5 mg/ml. Exponentially growing cells were trypsinized, centrifuged and split twice weekly at 5.10^4 cells/ml.
The P4 cells are HIV-infectible Hela-CD4 cells that carry the bacterial lacZ gene under the control of the HIV-1 long terminal repeat (LTR). In this cell line, transcription of the LacZ gene is driven by the HIV-1 LTR. […]
Briefly, in the anti-HIV assay 100 Ål of P4 cells were plated in 96-well plate at a concentration of 0.4 10^5 cells/ml and incubated at 37° C., 5% CO2. […] After 48 h of incubation at 37° C., 5% CO2, β-galactosidase activity was measured using chlorophenol red-β-D-galactopyranoside assays.
The absorbance was measured on a Benchmark™ Microplate Reader (Biorad) (λ=570 nm) and compared with 12 cell control replicates (no virus or drug added) and 12 virus control wells (no drug added). […] The 50% effective concentration (Ec50) was calculated from each dose response curve using the CurveExpert 1.3 software. […]

[5] = test system: HIV-1 with WT (wild type) RT in P4 cells; details: published values; read-out: Nevirapine activity, published values; cited from earlier work
[6] = Human immunodeficiency virus 1, read-out: EC50 Asn103RT P4

SMILES | EC50 [1] [µM] | CC50 [2] [µM] | CC50 at 3 days [3] [µM] | further results
CCOC(=O)c1c(OC2CC(C)CC(C)C2)c(CC)c(C)[nH]c1=O (single isomer, unassigned) [Z37inv] | 0.054 | 64 |  | 
O=C1Nc2ccc(Cl)cc2[C@@](C#CC2CC2)(C(F)(F)F)O1 [Efavirenz, reference compound] |  |  | 40 | 
Cc1ccnc2c1NC(=O)c1cccnc1N2C1CC1 [Nevirapine, reference compound] |  |  | > 100 | EC50 ([1]; Human immunodeficiency virus 1): 0.03 µM; EC50 [4, 6]: 1.71 µM; EC50 [5]: 0.01 to 0.1 µM
CCc1c(C)[nH]c(=O)c(CO)c1OC1CC(C)CC(C)C1 (centres unmarked) [Z45inv] | 0.018 | 76 |  | 
CCc1c(C)[nH]c(=O)c([N+](=O)[O-])c1OC1CC(C)CC(C)C1 (centres unmarked) [Z91inv, 3-nitro-5-ethyl-6-methyl-4-[(3,5-dimethylcyclohexyl)oxy]pyridine-2(1H)-one] |  |  | 37.2 | EC50 ([1]; Human immunodeficiency virus 1): < 0.001 µM; EC50 [4, 6]: 0.089 µM; melting point: 206 to 207 °C
CCc1c(C)[nH]c(=O)c(CSC(C)=O)c1OC1CC(C)CC(C)C1 (centres unmarked) [Z114] | < 0.001 | 8 |  | EC50 ([4]; P4, mutant Asn103RT, read-out: EC50 Asn103RT P4): 0.643 µM
CCc1c(C)[nH]c(=O)c(N(C)C)c1OC1CC(C)CC(C)C1 (centres unmarked) [Z150, 3-(dimethylamino)-5-ethyl-6-methyl-4-[(3,5-dimethylcyclohexyl)oxy]pyridine-2(1H)-one] |  |  | 66 | melting point: 129 to 130 °C
CCc1c(C)[nH]c(=O)c(CN=[N+]=[N-])c1OC1CC(C)CC(C)C1 (centres unmarked) [Z153] |  | 54 |  | 
CCc1c(C)[nH]c(=O)c(C)c1OC1CC(C)CC(C)C1 (centres unmarked) [Z154] |  | 80 |  | 

From patent US20070275953A1 (priority 2003, published 2007)
